Results on 14 compounds are retold here after patent US10842829B2, “Natural product to improve immunity and combat viral diseases, bacterial diseases, fungal diseases, and cancer diseases” (priority 2017, dated 2020).

For assay [1], the system named is Streptococcus isolated from cow's milk. Kind of assay: Streptococcus germs cultured in a lab setting.
Assay [2] relates to mycoplasma. Kind of assay: Mycoplasma disease treatment. It counts as in vivo. The settings on record: three sheep. The protocol: The experiment was at four sheep farms. The sheep suffered from cough and high temperature (42° C.). When performing autopsy on dead sheep, the congestion in the lungs was clear. […] Ampicillin only affects the cell wall.
Another 10 sick sheep from each farm were isolated and treated with 5 ml of Tylosin and Enrofloxacin.

The test system of assay [3] is NHDF cells (Normal Human Dermal Fibroblast cell line). Kind of assay: XTT proliferation assay on NHDF cells. The class given is cell-based. The protocol: FIGS. 20-23 and Tables F1-F4 relate to a study to determine the potency of novel natural extract compounds in inhibiting the proliferation of Normal Human Dermal Fibroblast cell line (NHDF cells). […] In this study: Compound I, III and IV which are arrangements of compound according to the present invention are evaluated in a XTT proliferation assay for 72 hours to determine its potency in inhibiting the proliferation of NHDF cells. Traditionally, the in-vitro determination of toxic effects of unknown compounds has been performed by counting viable cells after staining with a vital dye. The XTT system is a mean of measuring the activity of living cells via mitochondrial dehydrogenases. The XTT method is simple, accurate and yields reproducible results. […] Solutions of XTT, prepared in medium or balances salt solutions without phenol red, are yellowish in colour. Mitochondrial dehydrogenases of viable cells cleave the tetrazolium ring of XTT yielding orange formazon crystals which are soluble in aqueous solutions. The resulting orange colour is spectrophotometrically measured. The bio-reduction is XTT is inefficient but can be potentiated by the addition of an electron coupling agent such as phenazine methosulphate (PMS) to the reaction. An increase or decrease in cell numbers results in a concomitant change in the amount of formazon formed, indicating the degree of cytotoxicity caused by the test material. In the foregoing study the following kits and reagents were used: • Cells: NHDF, a Normal Human Dermal Fibroblast cell line (Lonza) • Media: FGM-2 bullet kit media • Cell culture T75 flasks (BD-Falcon-LAB353136) • 96 well cell clear tissue culture treated plates (BD-Falcon-LAB353072) • Dimethyl Sulphoxide (DMSO) (Sigma-D2650) • XT (Sigma-[…]) • PMS (Sigma-[…]) In the foregoing study, three arrangement of compound according to the present invention, which in FIGS. 20-23 and Tables F1-F4 are designated as compounds I, III and IV, were tested. In the foregoing study, the control or vehicle was sterile deionized water. In regard to experimental procedure, for seeding in a 96-well plate, the cells were re-suspended to a density of […] of complete FGM-2 Bullet kit medium. 80 μL of this cell suspension was added per well to seed 2000 cells per well. […] In the foregoing study, the following points relate to compound dilution and treatment: • 20 μL of stock (100×) was serially diluted (2×) in 20 μL of sterile deionized water. • 20 μL of each dilution was then added in triplicates in the previously seeded 96-well plate. • Cells treated with deionized water served as control. • 100 μL of complete Ham's F12 medium served as media blank for the data analysis. • 200 μL of PBS was added in all corner wells of the assay plate. Plate was then incubated for 72 hours in an incubator with 5% CO2 at 37° C. In the foregoing study, the following points relate to termination: • XTT reagent-1 mg/mL solution of XTT was made in serum-free Ham's F12 medium. […] The data was analyzed using GraphPad Prism Software. In regard to data generation in the foregoing study: • Raw data of OD values was obtained in the form of excel sheet from Victor X5 Multi-label Plate Reader. • Average of media blank and average of control was calculated. • Average media blank was subtracted from each experimental well and control.
(Tetrazolium assays rely on reduction of a dye to a coloured formazan, in cell work by metabolically active cells.)

For assay [4], the system named is HT-1080 cells (fibrosarcoma cell line). Kind of assay: XTT proliferation assay on HT-1080 cells. It counts as cell-based. The settings on record: Homo sapiens.
The subject of assay [5] is Pasteurella. Kind of assay: Pasteurella disease treatment. The settings on record: second group of 10 sheep, both antibiotics together.

For the compound `CC1(C)S[C@@H]2[C@H](NC(=O)[C@H](N)c3ccccc3)C(=O)N2[C@H]1C(=O)O` [Ampicillin], the killing of germs result in assay [1] is listed as “not all germs were killed”. Besides, in assay [2], the outcome of treatment is “they were not cured”.

Consider `COc1cccc2c1C(=O)c1c(O)c3c(c(O)c1C2=O)C[C@@](O)(C(=O)CO)C[C@@H]3O[C@H]1C[C@H](N)[C@H](O)[C@H](C)O1` [Doxorubicin], for which the % Inhibition (in general, the percentage by which the read-out fell short of the control) in assay [3] (Doxorubicin 0.000 μM) was 24.6%. Further, in assay [3] (Homo sapiens, Doxorubicin 0.001 μM), the inhibition (in general, the change of the read-out against control, counted positive when it falls) at 0.001 µM turned out to be 17.9%. Also, the inhibition at 0.004 µM in assay [3] (Homo sapiens, Doxorubicin 0.004 μM) stood at 25.9%. Further, in assay [3] (Homo sapiens, Doxorubicin 0.01 μM), the inhibition at 0.01 µM worked out at 26.9%. Moreover, the inhibition at 0.04 µM in assay [3] (Homo sapiens, Doxorubicin 0.04 μM) was 33.9%. Also, in assay [3] (Homo sapiens, Doxorubicin 0.11 μM), the inhibition at 0.11 µM is 37.5%. For the same compound, in assay [3] (Homo sapiens, Doxorubicin 0.33 μM), the inhibition at 0.33 µM was 68.6%. For the same compound, the inhibition at 1 µM in assay [3] (Homo sapiens, Doxorubicin 1 μM) was found to be 86.4%; in assay [4] (Doxorubicin 1 μM) it was 98.2%. For the same compound, the inhibition at 3 µM in assay [3] (Homo sapiens, Doxorubicin 3 μM) came to 57.1%. Moreover, at 0.0002 µM the inhibition in assay [4] (Doxorubicin 0.0002 μM) was 16.1%. This compound came in with an inhibition at 0.0005 µM in assay [4] (Doxorubicin 0.0005 μM) of 14.9%. The compound also came in with an inhibition at 0.0014 µM in assay [4] (Doxorubicin 0.0014 μM) of 22.1%. In assay [4] (Doxorubicin 0.0041 μM), this compound returned an inhibition at 0.0041 µM of 28.9%. In assay [4] (Doxorubicin 0.0123 μM), this compound came in with an inhibition at 0.0123 µM of 63.6%. This compound also returned an inhibition at 0.037 µM in assay [4] (Doxorubicin 0.0370 μM) of 76.4%. The compound also yielded an inhibition at 0.1111 µM in assay [4] (Doxorubicin 0.1111 μM) of 77.7%. In assay [4] (Doxorubicin 0.3333 μM), this compound had an inhibition at 0.3333 µM of 91%.

In the case of `NCC[C@H](O)C(=O)N[C@@H]1C[C@H](N)[C@@H](O[C@H]2O[C@H](CN)[C@@H](O)[C@H](O)[C@H]2O)[C@H](O)[C@H]1O[C@H]1O[C@H](CO)[C@@H](O)[C@H](N)[C@H]1O` [amikacin], the killing of germs result in assay [1] was “not all germs were killed”.

For `CC1=C(C(=O)O)N2C(=O)[C@@H](NC(=O)[C@H](N)c3ccccc3)[C@H]2SC1` [cephalexin], the killing of germs result in assay [1] is on record as “not all germs were killed”.

Take `O=C(O)c1cn(C2CC2)c2cc(N3CCNCC3)c(F)cc2c1=O` [ciprofloxacin]: the killing of germs entry in assay [1] was “not all germs were killed”.

On to `Cc1onc(-c2ccccc2Cl)c1C(=O)N[C@@H]1C(=O)N2[C@@H]1SC(C)(C)[C@@H]2C(=O)O` [cloxacillin], for which the killing of germs result in assay [1] was “not all germs were killed”.

Turning to `CCN1CCN(c2cc3c(cc2F)c(=O)c(C(=O)O)cn3C2CC2)CC1` [enrofloxacin], in assay [1], the killing of germs entry is reported as “not all germs were killed”. In assay [5], the “speed of improvement versus product group” value is on record as “slower than in the first group”.

For the compound `CC[C@H]1OC(=O)[C@H](C)[C@@H](O[C@H]2C[C@@](C)(OC)[C@@H](O)[C@H](C)O2)[C@H](C)[C@@H](O[C@@H]2O[C@H](C)C[C@H](N(C)C)[C@H]2O)[C@](C)(O)C[C@@H](C)C(=O)[C@H](C)[C@@H](O)[C@]1(C)O` [erythromycin], the killing of germs result in assay [1] is listed as “not all germs were killed”.

Take `[H]/N=C(/N)N[C@H]1[C@H](O)[C@@H](O)[C@H](O[C@@H]2O[C@@H](C)[C@](O)(C=O)[C@H]2O[C@@H]2O[C@@H](CO)[C@H](O)[C@@H](O)[C@@H]2NC)[C@@H](N/C(N)=N\[H])[C@@H]1O` [streptomycin]: the killing of germs entry in assay [1] was “not all germs were killed”.

As for Spiramycin, in assay [1], the killing of germs result is on record as “not all germs were killed”.

With Tylozin, in assay [1], the killing of germs entry is reported as “not all germs were killed”.

Turning to gentamicin, the killing of germs result in assay [1] was “not all germs were killed”.

In the case of neomycin, in assay [1], the killing of germs entry is on record as “not all germs were killed”.

With penicillin, the killing of germs entry in assay [1] was “not all germs were killed”.
